# Measured values taken from PMC11842588, “A first-in-class selective inhibitor of ERK1/2 and ERK5 overcomes drug resistance with a single-molecule strategy” (Signal Transduction and Targeted Therapy, 2025).
# pIC50: −log10 of the molar value.
# Key:
# [1] = Body weight and adverse effects in xenograft study; format: in vivo, nude mice (BALB/c-nu); settings: 25 and 50 mg/kg orally daily for 16 days
# Method: All procedures were performed in accordance with the Laboratory Animals Welfare Act, the Guide for the Care and Use of Laboratory Animals and the Guidelines and Policies. The rodent experiment was approved by IACUC (Institutional Animal Care and Use Committee) in the Experimental Animal Ethics Committee of West China Hospital (Approval No. 2021672A). 48 female nude mice (BALB/c-nu, 5 weeks, 15–18 g, purchased from Beijing HFK Bio-Technology Co., LTD) were acclimatized for one week in an SPF-grade animal facility (ventilated, 20–25 °C, 50–60% humidity). […] When the tumor volume reached approximately 100 mm^3 (V = L × W^2/2), the mice were randomly divided into six groups (n = 8 per group): (1) Control group (normal saline); (2) 25 mg/kg SKLB-D18-treated group; (3) 50 mg/kg SKLB-D18-treated group; (4) 50 mg/kg BVD-523-treated group; (5) 50 mg/kg XMD8-92-treated group; (6) BVD-523 (50 mg/kg) and XMD8-92 (50 mg/kg) combined treatment group. Drugs were freshly prepared with 5% DMSO, 10% Solutol HS-15, and 85% normal saline on the day of administration. Intragastric administration occurred once daily at the same time for 16 consecutive days. And the body weight and tumor volume of mice were measured every three days. After the administration period, all nude mice were euthanized by cervical dislocation the next day. […]
# [2] = system: MDA-MB-468 cells with knockdown of ERK1/2/5; test: MTT assay in ERK1/2/5 siRNA knockdown cells; format: cell-based; settings: Homo sapiens, siRNA co-transfection
# Method: (§1) The transient transfection processes were performed according to Lipofectamine 3000 transfection procedure details. The transfected cells were used for subsequent experiments after 48 h or 72 h.
# (§2) Cancer cells were seeded in a density in 96-well plates (2 × 10^3 cells per well). After incubation for 24 h, cancer cells were treated with compounds (0–20 μM) for 72 h.
# [3] = system: MDA-MB-231 cells with knockdown of ERK1/2/5; test: MTT assay in ERK1/2/5 siRNA knockdown cells; format: cell-based; settings: Homo sapiens, siRNA co-transfection
# Method: as §1, §2
# ERK1/2 and ERK5 = test: Cellular thermal shift assay (CETSA); format: cell-based; settings: 2 μM, MDA-MB-231 and MDA-MB-468 cells, 37–62 °C
# Method: Cells were collected by trypsin and then resuspended in PBS. Following heating at the indicated temperatures (37, 42, 47, 52, 57, and 62 °C) for 3 min, cell suspensions were lysed by three freeze−thaw cycles with liquid nitrogen and thawed at room temperature. The lysates were separated by centrifugation at 17,000 × g for 20 min. The supernatants were collected and prepared for Immunoblotting to detect the stability of ERK1/2 and ERK5.
smiles,measurement,setting,value
"CN(C)Cc1cccc(Nc2ncc(Cl)c(-c3csc(C(=O)NN4CCOCC4)c3)n2)c1 [SKLB-D18, 4-(5-chloro-2-((3-((dimethylamino)methyl)phenyl)amino)pyrimidin-4-yl)-N-morpholinothiophene-2-carboxamide]",weight loss or adverse effects,[1],No significant weight loss or adverse effects
same,pIC50,[2],4.70
same,pIC50,[3],4.83
same,thermal shift of ERK5 and ERK1/2 proteins (CETSA),ERK1/2 and ERK5,increasing thermal shift
